Experimental findings from ChEMBL document CHEMBL1201862, “PubChem BioAssay data set” (2004) are described below.

Active and inactive are the calls of the source.

Broadly, the AC50 is the midpoint of the concentration-response curve, whichever way the signal moves. By EC50 is commonly meant the concentration giving half of the maximal effect. By IC50 is commonly meant the concentration that inhibits the measured activity by half.

The target of data set [1] is Cytochrome P450 2C9 (Homo sapiens, UniProt P11712).
Data set [2] has as its target Cytochrome P450 2C19 (Homo sapiens, UniProt P33261). Kind of data set: Cytochrome panel assay with activity outcomes. Panel member name: p450-cyp2c19 Compounds with AC50 equal or less than 10 uM are considered active. The data set is classed as functional. The settings on record: read-out: AC50.
Data set [3] has as its target T1, Heat shock factor protein 1 (Mus musculus, UniProt P38532).
T1 sequence (P38532 whole entry): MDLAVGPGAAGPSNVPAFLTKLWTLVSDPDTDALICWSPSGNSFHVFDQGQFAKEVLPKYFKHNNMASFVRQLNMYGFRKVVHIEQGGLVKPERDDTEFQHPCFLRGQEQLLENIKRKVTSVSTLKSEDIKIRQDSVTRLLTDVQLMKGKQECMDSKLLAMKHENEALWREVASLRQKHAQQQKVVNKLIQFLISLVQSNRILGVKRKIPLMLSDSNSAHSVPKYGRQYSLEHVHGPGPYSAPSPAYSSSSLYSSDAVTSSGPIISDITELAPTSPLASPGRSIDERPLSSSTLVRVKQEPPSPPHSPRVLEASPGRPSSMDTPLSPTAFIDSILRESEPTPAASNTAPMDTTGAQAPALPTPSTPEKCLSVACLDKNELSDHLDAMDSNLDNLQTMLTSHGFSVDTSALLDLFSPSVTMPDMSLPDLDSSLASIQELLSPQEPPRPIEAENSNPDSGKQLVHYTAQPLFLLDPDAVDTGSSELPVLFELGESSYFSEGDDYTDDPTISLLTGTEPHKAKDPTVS
Kind of data set: HSF1 potentiators in luciferase reporter cells, confirmation, cell-based, NIH3T3, luminescence, dose retest (AID 435004).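 Also: stress induced by proteasome inhibitor MG132 added 30 min after compound; luciferase reporter driven by HSF1 response element in NIH3T3 cells; actives raise luminescence as potentiators of the MG132 stress response.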 In kind it is functional. For orientation: In a reporter assay the amount or activity of a reporter protein is the signal.

The target in data set [4] is T2, Short transient receptor potential channel 4 (Mus musculus, UniProt Q9QUQ5).
T2 sequence (Q9QUQ5 whole entry): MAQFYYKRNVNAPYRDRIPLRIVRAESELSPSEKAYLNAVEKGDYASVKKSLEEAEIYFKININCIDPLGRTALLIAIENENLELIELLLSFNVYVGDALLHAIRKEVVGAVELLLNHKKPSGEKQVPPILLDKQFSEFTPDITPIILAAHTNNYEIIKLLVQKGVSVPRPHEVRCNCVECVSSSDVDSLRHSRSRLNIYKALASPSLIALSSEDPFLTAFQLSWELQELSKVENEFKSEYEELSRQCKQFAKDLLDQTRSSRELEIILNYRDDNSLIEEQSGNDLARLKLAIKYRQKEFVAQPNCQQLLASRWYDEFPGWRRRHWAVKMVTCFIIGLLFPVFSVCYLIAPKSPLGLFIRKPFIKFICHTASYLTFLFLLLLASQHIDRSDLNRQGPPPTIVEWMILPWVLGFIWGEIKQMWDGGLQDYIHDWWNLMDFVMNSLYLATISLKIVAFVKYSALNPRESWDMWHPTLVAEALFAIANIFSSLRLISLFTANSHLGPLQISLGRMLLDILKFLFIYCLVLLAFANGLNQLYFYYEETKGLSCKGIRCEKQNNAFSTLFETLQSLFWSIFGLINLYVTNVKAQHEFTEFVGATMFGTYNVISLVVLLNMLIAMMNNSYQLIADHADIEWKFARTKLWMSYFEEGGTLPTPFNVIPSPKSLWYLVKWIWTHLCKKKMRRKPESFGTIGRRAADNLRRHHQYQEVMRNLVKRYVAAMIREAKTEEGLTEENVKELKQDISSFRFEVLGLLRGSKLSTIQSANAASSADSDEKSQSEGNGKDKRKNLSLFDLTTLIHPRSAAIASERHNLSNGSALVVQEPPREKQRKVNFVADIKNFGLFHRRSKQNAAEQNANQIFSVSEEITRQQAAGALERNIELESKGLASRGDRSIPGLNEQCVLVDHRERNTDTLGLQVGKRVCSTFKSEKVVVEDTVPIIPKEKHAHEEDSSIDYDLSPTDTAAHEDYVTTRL
Kind of data set: mouse TRPC4 channel inhibitors, dose response, cell-based, HEK293 TRPC4/mu-opioid, Fluo-4 calcium (AID 434942).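 Also: potency of inhibitors blocking the TRPC4 calcium response.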 The data set is classed as functional.

For data set [5], the target named is Cytochrome P450 2D6 (Homo sapiens, UniProt P10635).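 Also: CYP2D6 member of a cytochrome P450 panel assay.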
For data set [6], the system named is HEK293. The data set can be described thus: NOD2 signaling inhibitors in MDP-stimulated cells, cell-based, uHTS, luminescence (AID 2001). The settings on record: Homo sapiens. In kind it is functional.
Data set [7] in a line: Luminescence Cell-Based Dose Response HTS to Identify Inhibitors of 5'UTR Stem-Loop Driven Prion Protein mRNA Translation in H4 Neuroglioblastoma Cells. [Related pubchem assays: 1827 (Project Summary), 1813 (Primary HTS)]. The data set is classed as functional.
The nature of data set [8]: inhibitors of SNCA 5'UTR-driven reporter translation, confirmation, H4 neuroglioma cells, luminescence (AID 1988). The data set is classed as functional, cell-based.
Data set [9] deals with HEK293. The data set can be described thus: cells. The data set is classed as functional, cell-based. To be noted: Homo sapiens.
Data set [10] has as its system HEK293. Kind of data set: cells. The data set is classed as functional, cell-based. To be noted: Homo sapiens. The source holds these as a separate data set.
The nature of data set [11]: inhibitors of firefly luciferase expression or activity, dose response, H4 neuroglioma cells, luminescence (AID 1990). In kind it is functional, cell-based.
Data set [12] has as its system HEK293. The data set can be described thus: NOD1 signaling inhibitors, primary screen, cell-based, luminescence, uHTS (AID 1578). In kind it is functional. The settings on record: Homo sapiens.
Data set [13] relates to HEK293. The data set can be described thus: inhibitors of LMP1-driven NF-kB reporter, dose response, cell-based, HEK293, luciferase, cherry-pick (AID 588343). The data set is classed as functional. The settings on record: Homo sapiens.
The target of data set [14] is T3, DNA repair and recombination protein RAD54-like (Homo sapiens, UniProt Q92698).
T3 sequence (Q92698 whole entry): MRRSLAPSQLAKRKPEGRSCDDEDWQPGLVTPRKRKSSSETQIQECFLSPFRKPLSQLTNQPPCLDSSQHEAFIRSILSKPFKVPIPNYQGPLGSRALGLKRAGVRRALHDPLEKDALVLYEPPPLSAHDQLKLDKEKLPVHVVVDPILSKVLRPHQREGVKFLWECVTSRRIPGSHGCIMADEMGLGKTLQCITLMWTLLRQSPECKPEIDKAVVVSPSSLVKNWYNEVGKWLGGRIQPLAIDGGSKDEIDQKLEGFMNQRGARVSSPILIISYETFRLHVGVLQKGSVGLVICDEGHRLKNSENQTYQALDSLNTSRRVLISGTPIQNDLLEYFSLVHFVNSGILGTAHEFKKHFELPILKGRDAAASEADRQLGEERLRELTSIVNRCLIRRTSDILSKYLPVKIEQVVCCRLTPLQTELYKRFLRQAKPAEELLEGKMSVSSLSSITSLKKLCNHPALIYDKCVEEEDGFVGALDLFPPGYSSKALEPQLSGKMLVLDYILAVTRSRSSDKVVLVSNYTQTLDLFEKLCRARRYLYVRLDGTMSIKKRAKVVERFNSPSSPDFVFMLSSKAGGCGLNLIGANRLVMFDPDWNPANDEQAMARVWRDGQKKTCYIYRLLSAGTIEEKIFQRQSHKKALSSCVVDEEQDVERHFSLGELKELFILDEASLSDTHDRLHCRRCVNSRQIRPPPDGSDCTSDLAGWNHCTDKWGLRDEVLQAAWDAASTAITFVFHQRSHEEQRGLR
The data set can be described thus: inhibitors of human RAD54 branch migration, confirmation, biochemical, fluorescence, cherry-picked samples, dose series (AID 651657). The data set is classed as functional.

Data set [15] relates to H9c2. The data set can be described thus: cells. In kind it is functional, cell-based. The settings on record: Rattus norvegicus, H9c2, Myocardium.
Data set [16] in a line: Luminescence Cell-Based Dose Confirmation HTS to Identify Inhibitors of Platelet Dense Granule Release. [Related pubchem assays: 1663 (Primary HTS), 1678 (Summary of Project)]. The data set is classed as functional.
Data set [17] deals with Luciferin 4-monooxygenase (Photinus pyralis, UniProt P08659). Kind of data set: firefly luciferase enzyme inhibitors, dose response, biochemical, luminescence (AID 1891).
Data set [18] can be described thus: inhibitors of HIV Env-driven cell fusion, dose response, cherry-pick (AID 652057). The data set is classed as functional, cell-based.
The nature of data set [19]: inhibitors of clade B AD8 Env fusion, dose response, cell-based, cherry-pick (AID 652062).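 Also: luciferase signal from cell-cell fusion driven by HIV-1 clade B AD8 Env; potency is for inhibitors of fusion seen as a drop in luminescence.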 In kind it is functional.
Data set [20] deals with T2, Short transient receptor potential channel 4. The data set can be described thus: mouse TRPC4 channel activators, dose response, cell-based, HEK293 TRPC4/mu-opioid, Fluo-4 calcium (AID 434937). In kind it is functional.

Cytochrome P450 2C9, sequence (P11712 whole entry): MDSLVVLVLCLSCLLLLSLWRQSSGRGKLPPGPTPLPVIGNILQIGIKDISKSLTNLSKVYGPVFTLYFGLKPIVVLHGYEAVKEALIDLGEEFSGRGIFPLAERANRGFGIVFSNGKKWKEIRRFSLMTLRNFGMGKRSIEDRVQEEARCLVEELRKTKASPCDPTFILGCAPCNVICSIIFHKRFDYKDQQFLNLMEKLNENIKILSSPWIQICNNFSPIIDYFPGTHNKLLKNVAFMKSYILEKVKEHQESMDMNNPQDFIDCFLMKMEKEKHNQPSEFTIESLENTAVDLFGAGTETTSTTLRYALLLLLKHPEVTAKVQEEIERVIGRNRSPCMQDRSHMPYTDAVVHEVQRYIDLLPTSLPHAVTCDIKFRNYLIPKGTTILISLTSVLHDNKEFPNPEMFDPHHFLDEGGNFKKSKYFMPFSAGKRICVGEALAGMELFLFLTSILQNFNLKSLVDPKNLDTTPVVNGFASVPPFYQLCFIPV
Cytochrome P450 2D6, sequence (P10635 whole entry): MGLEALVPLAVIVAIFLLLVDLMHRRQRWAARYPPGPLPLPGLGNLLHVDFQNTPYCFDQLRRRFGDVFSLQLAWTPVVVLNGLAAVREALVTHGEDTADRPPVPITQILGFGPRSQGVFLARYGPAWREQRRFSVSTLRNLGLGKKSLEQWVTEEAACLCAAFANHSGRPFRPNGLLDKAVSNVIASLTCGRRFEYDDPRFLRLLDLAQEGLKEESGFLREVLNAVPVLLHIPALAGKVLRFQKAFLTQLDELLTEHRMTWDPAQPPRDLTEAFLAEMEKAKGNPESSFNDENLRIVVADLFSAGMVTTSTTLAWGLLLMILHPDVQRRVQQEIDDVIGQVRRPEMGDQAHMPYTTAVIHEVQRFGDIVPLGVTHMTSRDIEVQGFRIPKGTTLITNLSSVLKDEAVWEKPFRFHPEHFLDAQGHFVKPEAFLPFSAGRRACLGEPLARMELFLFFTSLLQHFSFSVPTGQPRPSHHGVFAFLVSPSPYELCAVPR
Cytochrome P450 2C19, sequence (P33261 whole entry): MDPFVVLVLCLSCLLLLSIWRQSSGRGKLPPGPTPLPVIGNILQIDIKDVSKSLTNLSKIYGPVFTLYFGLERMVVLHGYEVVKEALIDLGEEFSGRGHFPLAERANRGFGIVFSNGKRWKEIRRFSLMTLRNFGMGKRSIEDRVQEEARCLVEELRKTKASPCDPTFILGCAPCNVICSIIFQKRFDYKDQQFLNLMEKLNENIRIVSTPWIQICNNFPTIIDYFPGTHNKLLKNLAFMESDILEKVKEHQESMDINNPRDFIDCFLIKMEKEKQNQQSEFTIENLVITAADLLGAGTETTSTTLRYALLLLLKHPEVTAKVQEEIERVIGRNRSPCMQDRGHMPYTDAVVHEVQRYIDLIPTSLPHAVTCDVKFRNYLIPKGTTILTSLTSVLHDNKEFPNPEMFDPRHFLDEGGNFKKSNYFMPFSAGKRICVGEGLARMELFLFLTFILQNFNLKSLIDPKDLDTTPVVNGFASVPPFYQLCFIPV
Luciferin 4-monooxygenase, sequence (P08659 whole entry, the tested form may be a part): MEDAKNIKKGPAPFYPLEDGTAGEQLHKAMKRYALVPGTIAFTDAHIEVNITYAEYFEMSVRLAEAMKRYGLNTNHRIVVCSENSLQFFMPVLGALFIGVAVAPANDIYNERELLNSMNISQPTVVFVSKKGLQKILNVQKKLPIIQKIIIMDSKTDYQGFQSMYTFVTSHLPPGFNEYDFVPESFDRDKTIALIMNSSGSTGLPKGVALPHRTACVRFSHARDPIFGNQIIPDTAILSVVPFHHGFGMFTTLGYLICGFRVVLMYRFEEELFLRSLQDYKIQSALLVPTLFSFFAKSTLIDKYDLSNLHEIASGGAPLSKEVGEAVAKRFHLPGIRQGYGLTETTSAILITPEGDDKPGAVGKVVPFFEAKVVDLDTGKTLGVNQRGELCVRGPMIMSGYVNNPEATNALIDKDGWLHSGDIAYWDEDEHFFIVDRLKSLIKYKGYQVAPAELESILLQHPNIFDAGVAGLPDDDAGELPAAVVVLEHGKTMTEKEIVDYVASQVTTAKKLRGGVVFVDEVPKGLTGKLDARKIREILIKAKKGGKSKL

As to `FC(F)(F)c1cc(C(F)(F)F)c2ccc(N/N=C/c3cccc(Cl)c3)nc2n1`, the AC50 entry is “inconclusive” in data set [1] and 17.8 µM (inconclusive) in [2]. Take `Cc1ccsc1C(=O)C1CCCN(Cc2ccccc2O)C1` (centres undefined): the EC50 in data set [3] is > 260 µM (inactive); in data set [4] it was 4.22 µM (active). For `COc1ccc(C(C(=O)NC2CCCCC2)N2CCC3(CC2)OCCO3)cc1` (centres undefined), the values for the half-maximal activity concentration (AC50) result in [1] and in data set [5] were “inconclusive” and 0.316 µM (inconclusive), respectively. As to `CNCC[C@H](Oc1ccc(C(F)(F)F)cc1)c1ccccc1`, the AC50 result in data set [1] is “inactive”. For the compound `COc1ccc(N2CCN(S(=O)(=O)c3ccc4c(c3)CCCC4)CC2)c([N+](=O)[O-])c1`, in data set [1], the AC50 result was “inconclusive”. Regarding `Cc1nc2cc(NC(=O)c3ccc([N+](=O)[O-])s3)ccc2s1`, the IC50 in data set [6], in data set [9] and in [10] was > 20 µM (inactive) throughout. Further, the EC50 in [7] was 4.17 µM (active); in data set [8], 950 nM (active); in data set [11], < 0.1 µM (active); in data set [12], 3.16 µM (active). As for `O=C(CCCc1ccc(N(CCCl)CCCl)cc1)NCc1ccccc1`, the AC50 in [13] is 2.74 µM (active). `Cc1ccc2nc(C)c3c(c2c1)N(c1ccc(F)cc1)CC3`: the AC50 in [14] is 97.9 µM (active). Besides, in [4], the EC50 is 3.76 µM (active). For `Cc1ccc2nc(O)c3cc(C(=O)NCCN4CCN(C)CC4)sc3c2c1`, the AC50 in data set [14] was 56.7 µM (active). Take `CCOc1ccc2nc(NC(=O)CN3CCC(n4nnc5cc(F)ccc54)CC3)sc2c1`: the IC50 in data set [15] is > 79 µM (inactive). Take `COc1ccc(-c2csc(NC(=O)CCn3cnc4ccccc4c3=O)n2)cc1OC`: the IC50 in data set [15] is 27.9 µM (active). With `COc1ccc(-c2cn3ccc(C)cc3n2)cc1`, the figures for the EC50 in data set [16] and in data set [17] were 9.75 µM (active) and 1.13 µM (active), respectively. Moreover, the AC50 in [13] is 2.62 µM (active). Regarding `O=C(CCCN1C(=O)c2cccc3cccc(c23)C1=O)N1CCN(c2ccccc2O)CC1`, the IC50 in data set [15] is 9.95 µM (active).

Consider `Cc1cc(C(=O)COc2cccnc2[N+](=O)[O-])c(C)n1-c1ccccc1F`, for which the EC50 is 16.8 µM (active) in data set [7], 791 nM (active) in data set [8] and 6.07 µM (active) in data set [11]. The AC50 in data set [13] was 2.61 µM (active). `O=C(CCc1nc(O)c2ccccc2n1)N1CCN(S(=O)(=O)c2ccccc2Br)CC1`: the IC50 in data set [15] was > 79 µM (inactive).

Take `COc1cccc(C(=O)NNC2=CC(=O)CC(C)(C)C2)c1`: the AC50 result is “inconclusive” in data set [1], 25.1 µM (inconclusive) in data set [2] and 12.6 µM (inconclusive) in data set [5]. Take `N#CC1(NC(=O)COC(=O)Cn2[nH]c(=O)c3ccccc3c2=O)CCCCC1`: the IC50 in [15] was > 79 µM (inactive).

With `C[C@H](CO)N1C[C@H](C)[C@@H](CN(C)C(=O)[C@H](Cc2ccccc2)N(C)C)OCc2ccccc2-c2c(n(C)c3ccccc23)C1=O`, the figures for the AC50 in data set [18] and in [19] were 1.6 µM (active) and 13.3 µM (active), respectively. For the compound `Cc1cc(C)n(-c2nc(NCCN(C)C)c3c4c(sc3n2)COC(C)(C)C4)n1`, the AC50 in data set [14] is 100 µM (inactive). As for `CN(C)C1(CNC(=O)CC(NC(=O)c2ccccc2Cl)c2ccccc2)CCCCC1` (centres undefined), the values for the EC50 in [20] and in data set [4] were 668 nM (active) and 0.299 µM (active), respectively.
